Measurements: patent US8697376B2, “Synthetic protease substrates, assay methods using such substrates and kits for practicing the assay” (Lifesensors, INc., priority 2010, dated 2014)

System: DUBs immobilized on a Nexterion slide H
Experiment: Microarray-based assay: cleavage and label transfer to immobilized DUBs
Format: biochemical
Conditions: 35 DUBs arrayed as triplicate spots; FIG. 5
Protocol: Since one of the primary uses for the substrates of the invention is localization of active deubiquitylases immobilized in a microarray-type format, i.e. solid phase assay, each of the substrates was tested for its ability to be cleaved and subsequently transfer label to DUBs immobilized on a Nexterion slide H (Schott). Thirty-five (35) DUBs were arrayed as a series of triplicate spots on the slide (see Table 6 for a map of the array) Three identical arrays were constructed on each slide. Several features that were common amongst each array on a given slide and between slides are shown boxed in red and numbered 1-7. […] It should be noted that the enzymes (and antibodies) were coupled 1) at different concentrations and 2) by covalent attachment through surface exposed lysines.

Substance: ubiquitin-vinylsulfone
- immobilized enzymes labeled (positive features) on the microarray: all of the immobilized proteins were labeled
